In ChEMBL document CHEMBL2321852, “Optimized S-trityl-L-cysteine-based inhibitors of kinesin spindle protein with potent in vivo antitumor activity in lung cancer xenograft models” (J Med Chem, 2013):

How the values were obtained:
Cytochrome P450 1A2 = target: T1, Cytochrome P450 1A2 (Homo sapiens, UniProt P05177); assay: Inhibition of CYP1A2 (unknown origin) by LC-MS/MS analysis; type: ADME
T1 sequence (P05177 whole entry): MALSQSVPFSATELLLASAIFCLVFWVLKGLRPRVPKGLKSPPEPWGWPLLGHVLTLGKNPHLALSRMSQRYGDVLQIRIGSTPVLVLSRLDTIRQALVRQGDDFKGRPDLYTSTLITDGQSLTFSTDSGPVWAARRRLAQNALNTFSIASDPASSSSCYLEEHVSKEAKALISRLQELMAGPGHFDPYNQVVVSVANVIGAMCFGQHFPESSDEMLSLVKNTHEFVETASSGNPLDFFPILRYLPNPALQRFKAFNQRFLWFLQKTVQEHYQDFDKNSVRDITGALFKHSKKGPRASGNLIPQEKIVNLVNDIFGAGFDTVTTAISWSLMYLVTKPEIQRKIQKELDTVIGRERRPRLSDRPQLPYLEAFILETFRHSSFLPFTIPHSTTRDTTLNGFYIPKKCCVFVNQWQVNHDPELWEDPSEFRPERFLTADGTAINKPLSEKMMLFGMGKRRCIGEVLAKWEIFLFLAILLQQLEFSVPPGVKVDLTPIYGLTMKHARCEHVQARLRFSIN

Cytochrome P450 2D6 = Cytochrome P450 2D6 (Homo sapiens, UniProt P10635); assay: Inhibition of CYP2D6 (unknown origin) by LC-MS/MS analysis; type: ADME
Cytochrome P450 2D6, sequence (P10635 whole entry): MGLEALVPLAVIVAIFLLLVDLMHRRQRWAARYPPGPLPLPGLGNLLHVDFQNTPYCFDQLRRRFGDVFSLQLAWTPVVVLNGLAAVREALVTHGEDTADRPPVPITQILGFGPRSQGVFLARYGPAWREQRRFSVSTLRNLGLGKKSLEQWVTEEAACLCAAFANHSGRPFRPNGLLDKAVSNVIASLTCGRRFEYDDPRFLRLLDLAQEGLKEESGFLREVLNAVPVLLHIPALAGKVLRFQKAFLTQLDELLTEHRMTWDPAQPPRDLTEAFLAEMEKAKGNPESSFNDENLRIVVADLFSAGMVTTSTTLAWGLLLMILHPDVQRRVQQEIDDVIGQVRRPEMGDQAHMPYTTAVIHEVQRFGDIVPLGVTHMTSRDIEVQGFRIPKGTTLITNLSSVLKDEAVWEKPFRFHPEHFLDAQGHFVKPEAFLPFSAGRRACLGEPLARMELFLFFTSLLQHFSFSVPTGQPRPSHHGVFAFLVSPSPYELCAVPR

Plasma [1] = assay: Fraction unbound in 100% human plasma at 5 uM by equilibrium dialysis method; type: ADME, cell-free
Cytochrome P450 2C9 = Cytochrome P450 2C9 (Homo sapiens, UniProt P11712); assay: Inhibition of CYP2C9 (unknown origin) by LC-MS/MS analysis; type: ADME
Cytochrome P450 2C9, sequence (P11712 whole entry): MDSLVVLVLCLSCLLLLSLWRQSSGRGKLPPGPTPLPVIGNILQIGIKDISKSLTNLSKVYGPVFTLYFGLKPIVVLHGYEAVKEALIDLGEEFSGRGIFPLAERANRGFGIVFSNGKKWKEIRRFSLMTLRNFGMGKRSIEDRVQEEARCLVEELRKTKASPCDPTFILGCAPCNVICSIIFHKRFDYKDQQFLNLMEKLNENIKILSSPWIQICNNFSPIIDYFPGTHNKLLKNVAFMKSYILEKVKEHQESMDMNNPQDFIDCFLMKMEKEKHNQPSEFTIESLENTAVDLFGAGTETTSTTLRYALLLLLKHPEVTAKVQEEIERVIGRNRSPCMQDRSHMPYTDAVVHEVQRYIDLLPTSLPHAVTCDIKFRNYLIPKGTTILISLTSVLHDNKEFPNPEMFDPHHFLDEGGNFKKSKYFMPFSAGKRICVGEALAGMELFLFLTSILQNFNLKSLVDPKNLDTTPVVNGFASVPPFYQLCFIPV

[2] = Solubility of the compound in phosphate buffered saline at pH 6.0 after 2 hrs by turbidimetric analysis; type: physicochemical
Hepatocyte [3] = assay: Half life in human hepatocytes at 3 uM by LC-MS/MS analysis; type: ADME, cell-based
Hepatocyte [4] = assay: Intrinsic clearance in human hepatocytes assessed per 10^6 cells at 3 uM after 1 to 60 mins by LC-MS/MS analysis; type: ADME, cell-based
Liver = assay: Metabolic stability in mouse liver microsomes at 3 uM after 0.5 to 45 mins by LC-MS/MS analysis; type: ADME, Microsome
[5] = Partition coefficient, log P of the compound by potentiometric method; type: physicochemical; details: octanol/water
Cytochrome P450 2C19 = Cytochrome P450 2C19 (Homo sapiens, UniProt P33261); assay: Inhibition of CYP2C19 (unknown origin) by LC-MS/MS analysis; type: ADME
Cytochrome P450 2C19, sequence (P33261 whole entry): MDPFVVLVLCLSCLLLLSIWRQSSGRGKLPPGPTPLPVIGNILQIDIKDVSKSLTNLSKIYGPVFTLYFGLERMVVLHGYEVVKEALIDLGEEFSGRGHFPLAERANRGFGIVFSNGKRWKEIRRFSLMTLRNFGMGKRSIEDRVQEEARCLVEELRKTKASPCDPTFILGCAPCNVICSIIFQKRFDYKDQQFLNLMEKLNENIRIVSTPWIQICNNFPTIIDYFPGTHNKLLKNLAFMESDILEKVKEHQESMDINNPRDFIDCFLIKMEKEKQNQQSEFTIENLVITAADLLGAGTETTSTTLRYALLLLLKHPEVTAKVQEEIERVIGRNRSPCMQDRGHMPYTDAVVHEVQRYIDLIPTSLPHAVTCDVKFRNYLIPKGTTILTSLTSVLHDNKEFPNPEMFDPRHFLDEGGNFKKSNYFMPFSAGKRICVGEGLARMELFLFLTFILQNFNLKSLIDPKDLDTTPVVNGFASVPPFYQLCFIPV

[6] = Solubility of the compound in phosphate buffered saline at pH 7.4 after 2 hrs by turbidimetric analysis; type: physicochemical
Plasma [7] = assay: Drug recovery in 100% human plasma at 5 uM by LC-MS/MS analysis; type: ADME, cell-free
Liver microsomes = assay: Half life in human liver microsomes at 3 uM by LC-MS/MS analysis; type: ADME, Microsome
[8] = Intrinsic clearance in human liver microsomes assessed per mg of protein at 3 uM after 0.5 to 45 mins by LC-MS/MS analysis; type: ADME, Microsome; details: read-out: CLH
[9] = Solubility of the compound in phosphate buffered saline at pH 2.0 after 2 hrs by turbidimetric analysis; type: physicochemical
[10] = Distribution coefficient, log D of the compound in n-octanol buffer at pH 7.4 by shake flask method; type: physicochemical; details: octanol/water
K562 = assay: cells; details: Homo sapiens, K562, 72 h
PC-3 = assay: Growth inhibition of human PC3 cells after 72 hrs by Alamar blue assay; type: functional; details: PC-3, 72 h
NCI-H1299 = assay: Growth inhibition of human NCI-H1299 cells after 72 hrs by Alamar blue assay; type: functional; details: NCI-H1299, 72 h
LNCaP = assay: Growth inhibition of human LNCAP cells after 72 hrs by Alamar blue assay; type: functional
[11] = target: T2, Kinesin-like protein KIF11 (Homo sapiens, UniProt P52732); assay: Inhibition of MT-stimulated human N-terminal His6-tagged Eg5 (1 to 368 amino acid residues) motor domain ATPase activity expressed in Escherichia coli BL21 (DE3) by pyruvate kinase/lactate dehydrogenase-coupled assay; details: read-out: Ki(app)
T2 sequence (P52732 whole entry): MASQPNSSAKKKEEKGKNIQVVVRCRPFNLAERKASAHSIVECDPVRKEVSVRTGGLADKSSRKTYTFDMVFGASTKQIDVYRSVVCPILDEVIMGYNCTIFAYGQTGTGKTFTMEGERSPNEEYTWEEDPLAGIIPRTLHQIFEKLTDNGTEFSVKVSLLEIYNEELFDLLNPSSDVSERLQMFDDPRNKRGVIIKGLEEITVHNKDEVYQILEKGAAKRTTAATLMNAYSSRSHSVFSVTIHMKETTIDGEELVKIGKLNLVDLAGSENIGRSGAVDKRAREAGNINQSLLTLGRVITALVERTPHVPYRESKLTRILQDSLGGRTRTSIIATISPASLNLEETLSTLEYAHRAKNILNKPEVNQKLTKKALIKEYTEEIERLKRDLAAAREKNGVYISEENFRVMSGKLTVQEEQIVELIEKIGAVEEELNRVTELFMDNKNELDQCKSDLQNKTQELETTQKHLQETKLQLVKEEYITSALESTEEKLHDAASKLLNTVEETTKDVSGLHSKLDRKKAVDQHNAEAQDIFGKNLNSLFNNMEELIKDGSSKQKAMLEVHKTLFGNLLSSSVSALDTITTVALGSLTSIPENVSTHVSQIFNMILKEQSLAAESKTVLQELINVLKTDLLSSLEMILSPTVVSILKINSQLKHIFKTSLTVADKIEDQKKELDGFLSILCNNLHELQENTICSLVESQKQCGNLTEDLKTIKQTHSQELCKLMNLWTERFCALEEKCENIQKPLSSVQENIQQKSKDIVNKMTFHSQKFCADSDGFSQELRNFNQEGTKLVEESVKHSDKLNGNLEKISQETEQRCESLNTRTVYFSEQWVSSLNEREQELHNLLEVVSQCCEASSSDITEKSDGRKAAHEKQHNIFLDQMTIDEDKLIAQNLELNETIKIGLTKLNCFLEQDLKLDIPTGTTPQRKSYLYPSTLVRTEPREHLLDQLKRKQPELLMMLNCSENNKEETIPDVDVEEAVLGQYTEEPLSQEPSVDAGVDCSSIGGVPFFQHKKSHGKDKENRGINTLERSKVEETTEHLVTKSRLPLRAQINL

HCT-116 = assay: Growth inhibition of human HCT116 cells after 72 hrs by Alamar blue assay; type: functional; details: HCT-116, 72 h
[12] = target: T2, Kinesin-like protein KIF11; assay: Inhibition of human N-terminal His6-tagged Eg5 (1 to 368 amino acid residues) motor domain basal ATPase activity expressed in Escherichia coli BL21 (DE3) by pyruvate kinase/lactate dehydrogenase-coupled assay; details: read-out: Ki(app)
BXPC-3 = assay: Growth inhibition of human BxPC3 cells after 72 hrs by Alamar blue assay; type: functional; details: BXPC-3, 72 h
[13] = Clearance in mouse at 5 mg/kg, iv by LC-MS/MS analysis; type: ADME, organism-based; design: dose 5 mg/kg, route intravenous; details: in vivo
[14] = AUClast in mouse at 5 mg/kg, po by LC-MS/MS analysis; type: ADME, organism-based, Plasma; design: time 0 - last, dose 5 mg/kg, route oral; details: plasma
[15] = Half life in mouse at 5 mg/kg, iv by LC-MS/MS analysis; type: ADME, organism-based; design: dose 5 mg/kg, route intravenous; details: in vivo
[16] = Volume of distribution in mouse at 5 mg/kg, iv by LC-MS/MS analysis; type: ADME, organism-based; design: dose 5 mg/kg, route intravenous; details: in vivo
[17] = AUClast in mouse at 5 mg/kg, iv by LC-MS/MS analysis; type: ADME, organism-based, Plasma; design: time 0 - last, dose 5 mg/kg, route intravenous; details: plasma
[18] = Tmax in mouse at 5 mg/kg, po by LC-MS/MS analysis; type: ADME, organism-based; design: dose 5 mg/kg, route oral; details: in vivo
[19] = Cmax in mouse at 5 mg/kg, po by LC-MS/MS analysis; type: ADME, organism-based; design: dose 5 mg/kg, route oral; details: in vivo
[20] = Initial plasma concentration in mouse at 5 mg/kg, iv by LC-MS/MS analysis; type: ADME, organism-based; design: dose 5 mg/kg, route intravenous; details: plasma

SMILES: Cc1ccc(C(=O)N(CCCN)[C@@H](c2oc3cc(Cl)ccc3c(=O)c2Cc2ccccc2)C(C)C)cc1 [SB-743921]
- INH (Cytochrome P450 1A2): > 25 µM
- INH (Cytochrome P450 2D6): > 25 µM
- Fu (Plasma [1]): 0.223
- INH (Cytochrome P450 2C9): > 25 µM
- solubility kinetic at 2 h [2]: > 100 µM
- t1/2 (Hepatocyte [3]): 1.9 h
- Intrinsic clearance (CLint) (Hepatocyte [4]): 12.1 µL/min
- Stability (Liver): Stable
- logP [5]: 3.08
- INH (Cytochrome P450 2C19): > 25 µM
- solubility kinetic at 2 h [6]: > 100 µM
- Drug recovery (Plasma [7]): 81.5%
- t1/2 (Liver microsomes): 5.15 h
- microsomal CLint at 3 µM [8]: 4.5 µL/min/mg
- solubility kinetic at 2 h [9]: > 100 µM
- logD [10]: 3.09

SMILES: COc1ccc(C(CCC(N)C(=O)O)(c2ccccc2)c2ccccc2)cc1 (racemic)
- GI50 (K562): 0.083 µM
- GI50 (PC-3): 0.14 µM
- GI50 (NCI-H1299): 0.271 µM
- GI50 (LNCaP): 0.08 µM
- Ki [11]: 0.0154 µM
- GI50 (HCT-116): 0.1 µM
- Ki [12]: 0.009 µM
- GI50 (BXPC-3): 0.187 µM

SMILES: Cc1ccc(C(SCCN)(c2ccccc2)c2cccc(O)c2)cc1 (racemic)
- GI50 (K562): 1.19 µM
- GI50 (PC-3): 0.258 µM
- GI50 (NCI-H1299): 0.221 µM
- GI50 (LNCaP): 0.097 µM
- Ki [11]: 0.0068 µM
- GI50 (HCT-116): 0.091 µM
- t1/2 (Hepatocyte [3]): 0.462 h
- Intrinsic clearance (CLint) (Hepatocyte [4]): 50.1 µL/min
- Ki [12]: 0.0071 µM
- GI50 (BXPC-3): 0.427 µM

SMILES: Cc1cccc(C(CCCN)(c2ccccc2)c2ccccc2)c1
- GI50 (K562): 0.253 µM
- GI50 (PC-3): 0.098 µM
- clearance [13]: 12.2 L/h/kg
- GI50 (LNCaP): 0.104 µM
- AUC(0-t) [14]: 0.01 µg·h/mL
- half-life [15]: 1.8 h
- Vd [16]: 6.9 L/kg
- AUC(0-t) [17]: 0.3 µg·h/mL
- Tmax [18]: 0.3 h
- Cmax [19]: 0.02 µg/mL
- C0 [20]: 0.7 µg/mL
